The results in this text go back to patent US10828267B2, “Therapeutic regimens and methods for improving visual function in visual disorders associated with an endogenous retinoid deficiency” (RETINAGENIX THERAPEUTICS, INC., priority 2012, dated 2020).

This data set is described as follows: Interim pharmacokinetics, multiple-dose study (Example 5). It is filed as in vivo, human. The procedure: Interim Pharmacokinetic results of the study were derived from plasma concentrations of 9-cis-retinyl acetate and its metabolites, measured throughout the study period at prescribed time points. The scope of this interim PK analysis encompasses samples from Cohort 1 including the placebo (n=2), 40 mg/m^2 (n=6) and 60 mg/m^2 (n=2) dose groups obtained in treatment cycles 1, 2 and 3.
The plasma samples were analyzed by liquid chromatography-mass spectrometry-mass spectrometry (LC/MS/MS) for parent drug and potential metabolites. Noncompartmental (NCA) pharmacokinetic (PK) parameters such as AUC were obtained using the WinNonlin software with observational determination of Cmax, tmax, and duration of concentrations above baseline (TD).

For `CC(=O)OC/C=C(C)/C=C/C=C(C)\C=C\C1=C(C)CCCC1(C)C` [9-cis-Retinyl acetate, (2E, 4E, 6Z, 8E)-3,7-dimethyl-9-(2,6,6-trimethylcyclohex-1-en-1-yl) nona-2,4,6,8-tetraen-1-yl acetate], where the note is “40 mg/m^2, repeated seven day cycles”, the “accumulation of 9-cis-retinol and retinyl ester metabolites on multiple-dosing” value is given as “slight to modest accumulation”. The “accumulation of metabolites from cycle to cycle” value (40 mg/m^2, Cycles 1, 2 and 3) is reported as “no accumulation being observed from cycle to cycle”. Further, the plasma concentrations result (Cohort 1, 40 and 60 mg/m^2, cycles 1-3) was “low and transient”.
